Data as given in patent US20090104157A1, “UTILIZATION OF BACTERIOPHAGE TO CONTROL BACTERIAL CONTAMINATION IN FERMENTATION PROCESSES” (E. I. du Pont de Nemours and Company, priority 2007, published 2009).

Key:
[1] = tested on: Lactobacillus plantarum ATCC 8014 in corn mash; assay: Level of L. plantarum in inoculated corn mash by plating on MRS agar (Example 2); type: cell-based; conditions: 3 ppm
Protocol: Samples of corn mash were collected from a commercial fuel ethanol plant. The corn mash was collected immediately after liquefaction, prior to entry into fermentation. Corn mash samples were frozen upon arrival and defrosted for use in experiments. Lactobacillus plantarum ATCC 8014 was cultured overnight in MRS broth (Difco, Sparks, Md.). Samples of corn mash were inoculated with L. plantarum at approximately 10^4 CFU/ml. This level of bacterial contamination is common in fuel ethanol plants. L. plantarum bacteriophage (B-8014) were prepared and titered using the overlay method on MRS agar (as described in Example 1). One sample of corn mash received no treatment. A second sample was treated by the addition of 3 parts per million (ppm) of Penicillin G. Three additional samples were treated with phage at a bacteria to phage ratio of 1:1, 1:10, and 1:100. All mash samples were incubated at 33° C., the temperature at which commercial fermentation takes place. The level of bacteria remaining in the test samples was determined by decimal dilutions in phosphate-buffered saline followed by plating of these dilutions onto plates of MRS agar. Plates were incubated overnight at 33° C. and colonies were enumerated.

L. plantarum ATCC 8014 = assay: Growth of L. plantarum in MRS broth by optical density (Example 1); type: cell-based, Lactobacillus plantarum; conditions: 1 ppm, after 40 hours of incubation
From the text: Lactobacillus plantarum is a bacterium commonly isolated from contaminated fuel ethanol fermentation. In this example, a spectrophotometer was used to quantify the growth of L. plantarum in laboratory media. The use of a spectrophotometer allowed rapid determination of bacterial levels by optical density. The optical density indicates the amount of light (at a wavelength of 450 nm) absorbed by a sample. High levels of bacterial growth in a sample well result in higher optical density.
L. plantarum ATCC 8014 was cultured overnight in MRS broth (available from Difco, Sparks, Md.) at 30° C. Stocks of L. plantarum ATCC 8014 bacteriophage (bacteriophage cocktail is referred to in the Examples as “B-8014”) were prepared and titered using the overlay method (Adams, M. H. The Bacteriophages, Interscience Publishers, New York, 1959) with MRS agar. Since bacteriophage (phage) are viruses, they are unable to replicate outside of their bacterial host. Therefore, to enumerate phage, cultures of host bacteria were prepared and mixed with dilutions of phage. These mixtures were placed onto a petri dish containing agar and incubated overnight. The presence of clear zones on “lawns” of bacteria indicated phage infection. These clear zones are known as “plaques” and therefore, phage levels are commonly referred to as plaque forming units per milliliter (PFU/ml). […]

CC1(C)S[C@@H]2[C@H](NC(=O)Cc3ccccc3)C(=O)N2[C@H]1C(=O)O [Penicillin G]
effect on growth of L. plantarum [1]: did not affect or control growth | Log CFU/ml at 0 hours ([1]; 33° C.): 4.86 Log CFU/ml | Log CFU/ml at 24 hours ([1]; 33° C.): 9.09 Log CFU/ml | Log CFU/ml at 40 hours ([1]; 33° C.): 9.19 Log CFU/ml | optical density at 450 nm compared with control wells (L. plantarum ATCC 8014): higher | reduction of growth of L. plantarum (L. plantarum ATCC 8014): not effective
